# Target: T1, human Werner helicase (Uniprot Q14191, amino acids 517-1235 with L1074F point mutation), WRN-BV08 (Homo sapiens, UniProt Q14191, L1074F)
# T1 construct: Uniprot Q14191, amino acids 517-1235 with L1074F point mutation; TEV cleavable 8xHis tag (C, cleaved yes); made in house; host or cells: Sf9 insect cells (baculovirus, pFastBac)
# Assay: WRN (BV08) ADP-Glo Assay
# Assay type: biochemical
# T1 sequence (Q14191 517-1235 L1074F): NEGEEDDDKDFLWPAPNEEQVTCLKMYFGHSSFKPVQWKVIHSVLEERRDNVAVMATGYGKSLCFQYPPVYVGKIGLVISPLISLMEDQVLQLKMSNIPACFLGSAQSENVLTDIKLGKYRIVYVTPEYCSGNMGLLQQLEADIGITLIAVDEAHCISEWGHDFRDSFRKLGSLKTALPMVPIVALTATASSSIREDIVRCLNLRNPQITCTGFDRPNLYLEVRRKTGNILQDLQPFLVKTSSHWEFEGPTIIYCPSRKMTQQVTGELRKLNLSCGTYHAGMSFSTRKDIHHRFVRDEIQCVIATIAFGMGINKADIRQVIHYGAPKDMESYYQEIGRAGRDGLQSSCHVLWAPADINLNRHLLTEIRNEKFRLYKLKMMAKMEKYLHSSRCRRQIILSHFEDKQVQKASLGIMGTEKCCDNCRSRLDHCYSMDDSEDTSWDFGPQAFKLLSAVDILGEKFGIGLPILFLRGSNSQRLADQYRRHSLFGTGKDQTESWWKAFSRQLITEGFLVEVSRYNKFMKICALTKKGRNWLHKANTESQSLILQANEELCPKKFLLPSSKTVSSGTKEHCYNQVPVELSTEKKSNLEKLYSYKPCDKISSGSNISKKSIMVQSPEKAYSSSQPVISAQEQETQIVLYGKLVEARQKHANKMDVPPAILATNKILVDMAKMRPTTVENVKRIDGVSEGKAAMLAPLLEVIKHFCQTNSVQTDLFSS
row,Structure (SMILES),IC50 [nM]
1,"CCc1c(N2CCN(C(=O)c3ncnc(C)c3O)CC2)c(=O)n2nc(-c3cnn(C4CC4)c3)nc2n1CC(=O)Nc1ccc(C(F)(F)F)cc1Cl [Compound I-32, N-[2-chloro-4-(trifluoromethyl)phenyl]-2-[2-(1-cyclopropyl-1H-pyrazol-4-yl)-5-ethyl-6-[4-(5-hydroxy-6-methylpyrimidine-4-carbonyl)piperazin-1-yl]-7-oxo-4H,7H-[1,2,4]triazolo[1,5-a]pyrimidin-4-yl]acetamide]",5 to 50
2,"CCc1c(N2CCN(C(=O)c3ncn(C)n3)CC2)c(=O)n2nc(-c3ccnc(OC)c3)nc2n1CC(=O)Nc1ccc(C(F)(F)F)cc1Cl [Compound I-73, N-[2-chloro-4-(trifluoromethyl)phenyl]-2-[5-ethyl-2-(2-methoxypyridin-4-yl)-6-[4-(1-methyl-1H-1,2,4-triazole-3-carbonyl)piperazin-1-yl]-7-oxo-4H,7H-[1,2,4]triazolo[1,5-a]pyrimidin-4-yl]acetamide]",5 to 50
3,"CCc1c(N2CCN(C(=O)c3cnn(C)c3C)CC2)c(=O)n2nc(-c3ccnc(OC)c3)nc2n1CC(=O)Nc1ccc(C(F)(F)F)cc1Cl [Compound I-49, N-[2-chloro-4-(trifluoromethyl)phenyl]-2-{6-[4-(1,5-dimethyl-1H-pyrazole-4-carbonyl)piperazin-1-yl]-5-ethyl-2-(2-methoxypyridin-4-yl)-7-oxo-4H,7H-[1,2,4]triazolo[1,5-a]pyrimidin-4-yl}acetamide]",5 to 50
4,"CCc1c(N2CCN(C(=O)c3cnn(C)c3)[C@H](C)C2)c(=O)n2nc(-c3ccnc(OC)c3)nc2n1CC(=O)Nc1ccc(C(F)(F)F)cc1Cl [Compound I-77, N-[2-chloro-4-(trifluoromethyl)phenyl]-2-[5-ethyl-2-(2-methoxypyridin-4-yl)-6-[(3R)-3-methyl-4-(1-methyl-1H-pyrazole-4-carbonyl)piperazin-1-yl]-7-oxo-4H,7H-[1,2,4]triazolo[1,5-a]pyrimidin-4-yl]acetamide]",5 to 50
5,"CCc1c(N2CCN(C(=O)c3cnn(C)c3)CC2)c(=O)n2nc(-c3cccnc3OC)nc2n1CC(=O)Nc1ccc(C(F)(F)F)cc1Cl [Compound I-54, N-[2-chloro-4-(trifluoromethyl)phenyl]-2-[5-ethyl-2-(2-methoxypyridin-3-yl)-6-[4-(1-methyl-1H-pyrazole-4-carbonyl)piperazin-1-yl]-7-oxo-4H,7H-[1,2,4]triazolo[1,5-a]pyrimidin-4-yl]acetamide]",5 to 50
6,"CCc1c(N2CCN(C(=O)c3nc(C)cs3)CC2)c(=O)n2nc(-c3ccnc(OC)c3)nc2n1CC(=O)Nc1ccc(C(F)(F)F)cc1Cl [Compound I-57, N-[2-chloro-4-(trifluoromethyl)phenyl]-2-[5-ethyl-2-(2-methoxypyridin-4-yl)-6-[4-(4-methyl-1,3-thiazole-2-carbonyl)piperazin-1-yl]-7-oxo-4H,7H-[1,2,4]triazolo[1,5-a]pyrimidin-4-yl]acetamide]",100 to 500
7,"CCc1c(N2CCN(C(C)=O)CC2)c(=O)n2nc(-c3ccnc(OC)c3)nc2n1CC(=O)Nc1ccc(C(F)(F)F)cc1Cl [Compound I-46, 2-[6-(4-acetylpiperazin-1-yl)-5-ethyl-2-(2-methoxypyridin-4-yl)-7-oxo-4H,7H-[1,2,4]triazolo[1,5-a]pyrimidin-4-yl]-N-[2-chloro-4-(trifluoromethyl)phenyl]acetamide]",5 to 50
8,"CCc1c(N2CCN(C(=O)c3cnn(C)c3O)CC2)c(=O)n2nc(C3=CCOCC3)nc2n1CC(=O)Nc1ccc(C(F)(F)F)cc1Cl [Compound I-26, N-[2-chloro-4-(trifluoromethyl)phenyl]-2-[2-(3,6-dihydro-2H-pyran-4-yl)-5-ethyl-6-[4-(5-hydroxy-1-methyl-1H-pyrazole-4-carbonyl)piperazin-1-yl]-7-oxo-4H,7H-[1,2,4]triazolo[1,5-a]pyrimidin-4-yl]acetamide]",5 to 50
9,"CCc1c(N2CCN(C(=O)c3cnn(C)c3)CC2)c(=O)n2nc(-c3cnn(CC(C)(C)O)c3)nc2n1CC(=O)Nc1ccc(C(F)(F)F)cc1Cl [Compound I-56, N-[2-chloro-4-(trifluoromethyl)phenyl]-2-{5-ethyl-2-[1-(2-hydroxy-2-methylpropyl)-1H-pyrazol-4-yl]-6-[4-(1-methyl-1H-pyrazole-4-carbonyl)piperazin-1-yl]-7-oxo-4H,7H-[1,2,4]triazolo[1,5-a]pyrimidin-4-yl}acetamide]",5 to 50
10,"CCc1c(N2CCN(C(=O)CC#N)CC2)c(=O)n2nc(C3=CCOCC3)nc2n1CC(=O)Nc1ccc(C(F)(F)F)cc1Cl [Compound I-25, N-[2-chloro-4-(trifluoromethyl)phenyl]-2-{6-[4-(2-cyanoacetyl)piperazin-1-yl]-2-(3,6-dihydro-2H-pyran-4-yl)-5-ethyl-7-oxo-4H,7H-[1,2,4]triazolo[1,5-a]pyrimidin-4-yl}acetamide]",5 to 50
11,"CCc1c(N2CCN(C(=O)c3noc(C)n3)CC2)c(=O)n2nc(-c3ccnc(OC)c3)nc2n1CC(=O)Nc1ccc(C(F)(F)F)cc1Cl [Compound I-78, N-[2-chloro-4-(trifluoromethyl)phenyl]-2-[5-ethyl-2-(2-methoxypyridin-4-yl)-6-[4-(5-methyl-1,2,4-oxadiazole-3-carbonyl)piperazin-1-yl]-7-oxo-4H,7H-[1,2,4]triazolo[1,5-a]pyrimidin-4-yl]acetamide]",5 to 50
12,"CCc1c(N2CCN(C(C)=O)CC2)c(=O)n2nc(-c3cnc(C(C)(C)O)s3)nc2n1CC(=O)Nc1ccc(C(F)(F)F)cc1Cl [Compound I-87, 2-[6-(4-acetylpiperazin-1-yl)-5-ethyl-2-[2-(2-hydroxypropan-2-yl)-1,3-thiazol-5-yl]-7-oxo-4H,7H-[1,2,4]triazolo[1,5-a]pyrimidin-4-yl]-N-[2-chloro-4-(trifluoromethyl)phenyl]acetamide]",5 to 50
13,"CCc1c(N2CCN(C(=O)c3ncnc(C)c3O)CC2)c(=O)n2nc(-c3cc(C)nc(OC)c3)nc2n1CC(=O)Nc1ccc(C(F)(F)F)cc1Cl [Compound I-43, N-[2-chloro-4-(trifluoromethyl)phenyl]-2-{5-ethyl-6-[4-(5-hydroxy-6-methylpyrimidine-4-carbonyl)piperazin-1-yl]-2-(2-methoxy-6-methylpyridin-4-yl)-7-oxo-4H,7H-[1,2,4]triazolo[1,5-a]pyrimidin-4-yl}acetamide]",5 to 50

# Now from value to compound:
row,IC50 [nM],Structure (SMILES)
1,5 to 50,"CCc1c(N2CCN(C(=O)c3cnn(C)c3)CC2)c(=O)n2nc(-c3cc(OC)ncn3)nc2n1CC(=O)Nc1ccc(C(F)(F)F)cc1Cl [Compound I-71, N-[2-chloro-4-(trifluoromethyl)phenyl]-2-[5-ethyl-2-(6-methoxypyrimidin-4-yl)-6-[4-(1-methyl-1H-pyrazole-4-carbonyl)piperazin-1-yl]-7-oxo-4H,7H-[1,2,4]triazolo[1,5-a]pyrimidin-4-yl]acetamide]"
2,5 to 50,"CCc1c(N2CCN(C(=O)C(F)F)CC2)c(=O)n2nc(-c3ccnc(OC)c3)nc2n1CC(=O)Nc1ccc(C(F)(F)F)cc1Cl [Compound I-53, N-[2-chloro-4-(trifluoromethyl)phenyl]-2-{6-[4-(2,2-difluoroacetyl)piperazin-1-yl]-5-ethyl-2-(2-methoxypyridin-4-yl)-7-oxo-4H,7H-[1,2,4]triazolo[1,5-a]pyrimidin-4-yl}acetamide]"
3,5 to 50,"CCc1c(N2CCN(C(=O)c3cnnn3C)CC2)c(=O)n2nc(-c3ccnc(OC)c3)nc2n1CC(=O)Nc1ccc(C(F)(F)F)cc1Cl [Compound I-63, N-[2-chloro-4-(trifluoromethyl)phenyl]-2-[5-ethyl-2-(2-methoxypyridin-4-yl)-6-[4-(1-methyl-1H-1,2,3-triazole-5-carbonyl)piperazin-1-yl]-7-oxo-4H,7H-[1,2,4]triazolo[1,5-a]pyrimidin-4-yl]acetamide]"
4,5 to 50,"CCc1c(N2CCN(C(=O)c3sc(C(F)(F)F)cc3O)CC2)c(=O)n2nc(C3=CCOCC3)nc2n1CC(=O)Nc1ccc(C(F)(F)F)cc1Cl [Compound I-7, N-[2-chloro-4-(trifluoromethyl)phenyl]-2-[2-(3,6-dihydro-2H-pyran-4-yl)-5-ethyl-6-{4-[3-hydroxy-5-(trifluoromethyl)thiophene-2-carbonyl]piperazin-1-yl}-7-oxo-4H,7H-[1,2,4]triazolo[1,5-a]pyrimidin-4-yl]acetamide]"
5,< 5,"CCc1c(N2CCN(C(=O)c3ncc4c(c3O)CCO4)CC2)c(=O)n2nc(-c3ccnc(OC)c3)nc2n1CC(=O)Nc1ccc(C(F)(F)F)cc1Cl [Compound I-85, N-[2-chloro-4-(trifluoromethyl)phenyl]-2-[5-ethyl-6-(4-{4-hydroxy-2H,3H-furo[2,3-c]pyridine-5-carbonyl}piperazin-1-yl)-2-(2-methoxypyridin-4-yl)-7-oxo-4H,7H-[1,2,4]triazolo[1,5-a]pyrimidin-4-yl]acetamide]"
6,5 to 50,"CCc1c(N2CCN(C(=O)c3cnc(C)s3)CC2)c(=O)n2nc(-c3ccnc(OC)c3)nc2n1CC(=O)Nc1ccc(C(F)(F)F)cc1Cl [Compound I-59, N-[2-chloro-4-(trifluoromethyl)phenyl]-2-[5-ethyl-2-(2-methoxypyridin-4-yl)-6-[4-(2-methyl-1,3-thiazole-5-carbonyl)piperazin-1-yl]-7-oxo-4H,7H-[1,2,4]triazolo[1,5-a]pyrimidin-4-yl]acetamide]"
7,5 to 50,"CCc1c(N2CCN(C(=O)c3ccnc(C)c3O)CC2)c(=O)n2nc(C3=CCOCC3)nc2n1CC(=O)Nc1ccc(C(F)(F)F)cc1Cl [Compound I-5, N-[2-chloro-4-(trifluoromethyl)phenyl]-2-[2-(3,6-dihydro-2H-pyran-4-yl)-5-ethyl-6-[4-(3-hydroxy-2-methylpyridine-4-carbonyl)piperazin-1-yl]-7-oxo-4H,7H-[1,2,4]triazolo[1,5-a]pyrimidin-4-yl]acetamide]"
8,5 to 50,"CCc1c(N2CCN(C(=O)c3nnn(C)n3)CC2)c(=O)n2nc(-c3ccnc(OC)c3)nc2n1CC(=O)Nc1ccc(C(F)(F)F)cc1Cl [Compound I-74, N-[2-chloro-4-(trifluoromethyl)phenyl]-2-[5-ethyl-2-(2-methoxypyridin-4-yl)-6-[4-(2-methyl-2H-1,2,3,4-tetrazole-5-carbonyl)piperazin-1-yl]-7-oxo-4H,7H-[1,2,4]triazolo[1,5-a]pyrimidin-4-yl]acetamide]"

# Source: US20260356840A1, “[1,2,4]TRIAZOLO[1,5-A]PYRIMIDINONE WRN INHIBITORS” (Nimbus Wadjet, Inc., priority 2023, published 2026)
